Measured values taken from patent publication US20250084041A1, “ANTIMICROBIAL COMPOUNDS AND METHODS” (Curza Global, LLC, priority 2021, published 2025).
Where a name gives a salt, the structure may show the parent alone. Read-outs that look alike come from different tables or passages of the source.

Assays:
P. aeruginosa (Pa) = experiment: Broth microdilution MIC, P. aeruginosa; type: cell-based; details: for MIC: Pseudomonas aeruginosa, read-out: Pa + bicarb 25 (MIC)
Description: (§1) A certified BSL-2 laboratory was used for testing. Compounds were evaluated using the broth microdilution minimum inhibitory concentration (MIC) and minimum bactericidal concentration (MBC) assays defined by Clinical and Laboratory Standards Institute (CLSI) in the M26-A guideline against S. aureus (Sa), E. coli (Ec), K. pneumoniae (Kp), A. baumannii (Ab), E. faecalis (Ef) and P. aeruginosa (Pa).
(§2) MICs were determined using the Clinical Laboratory and Standards Institute (CLSI) Broth Microdilution Method with slight modification. Clinical and Laboratory Standards Institute (2012). “Methods for dilution antimicrobial susceptibility tests for bacteria that grow aerobically; approved standard, 9th ed. M07-A9. Clinical and Laboratory Standards Institute, Wayne, PA.” Serial two-fold dilutions of compounds are prepared in sterile clear round-bottom 96-well plates.
(§3) To prepare microdilution trays, two-fold dilutions of antimicrobial agent are prepared in growth medium: Cation-Adjusted Mueller-Hinton Broth (CAMHB), or CAMHB supplemented with sodium bicarbonate (25 mM final concentration prepared from a 1.0 M stock solution) or CAMHB supplemented with heat inactivated human serum (Fisher Cat. #BP2657100) 0-50% by adding 200 μL of the highest concentration to be tested (64 μg/mL, for example) in row A, mixing and transferring 100 μL from row A to 100 μL growth medium in row B, then repeating the mixing and transferring through row H of the 96-well plate, discarding the excess 100 μL remaining. This slight modification to the CLSI protocol enables evaluation of MICs for 3 compounds per plate in triplicate, albeit with only 8 compound dilutions (CLSI protocol enables 2 compounds in triplicate with 10 dilutions). Bacterial suspensions are added to a final concentration of 5×10^4 CFU/well by adding 5 μL of a 1:10 dilution of a 0.5 McFarland suspension (1×10^8 CFU/mL) for each bacterium evaluated. Bacterial suspensions were prepared using the growth method described by CLSI. Well-isolated colonies (3-5 from an agar plate) were selected using a sterile loop and used to inoculate a tube containing 4 mL of CAMHB. The cultures are incubated at 35±2° C. until it achieves or exceeds the turbidity of the 0.5 McFarland standard, determined by measuring A600nm (usually two to six hours). When growth exceeds a 0.5 McFarland standard, the turbidity is adjusted with broth to be equivalent to a 0.5 McFarland standard.

[1] = biological target: Rabbit Reticulocyte Lysate; experiment: Rabbit Reticulocyte Lysate: inhibition of eukaryotic protein synthesis (luciferase); type: biochemical; details: 30° C. 90 minutes, read-out: Retic. IC50
In short: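 Nuclease-treated rabbit reticulocyte lysate translating luciferase control RNA with complete amino acids; compounds in 8-point 2-fold dilutions, 90 min at 30° C. Luminescence read after luciferase reagent; % inhibition versus water (no-inhibitor) control, no-RNA wells as background.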

A. baumannii (Ab) = experiment: Broth microdilution MIC, A. baumannii; type: cell-based; details: for MIC: Acinetobacter baumannii, read-out: Ab + bicarb 25 (MIC); for Ab + bicarb 25 (MIC): hydrochloride salt
Description: as §1, §2, §3

E. faecalis (Ef) = experiment: Broth microdilution MIC, E. faecalis; type: cell-based; details: for MIC: Enterococcus faecalis, read-out: Ef + bicarb 25 (MIC)
Description: as §1, §2, §3

E. coli (Ec) = experiment: Broth microdilution MIC, E. coli; type: cell-based; details: for MIC: Escherichia coli, read-out: E. coli + bicarb 25 (MIC)
Description: as §1, §2, §3

S. aureus (Sa) = experiment: Broth microdilution MIC, S. aureus; type: cell-based; details: for MIC: Staphylococcus aureus, read-out: Sa + bicarb 25 (MIC)
Description: as §1, §2, §3

E. coli S30 extract = experiment: E. coli S30 extract: inhibition of bacterial protein synthesis (luciferase); type: biochemical; details: 37° C. 1 hour
In short: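 Coupled transcription-translation in E. coli S30 extract, programmed with pBESTluc plasmid, was run with 8-point 2-fold compound dilutions for 1 h at 37 °C. After a cold stop, luciferase luminescence was read and percent inhibition calculated against no-inhibitor controls.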

[2] = P. aeruginosa, CAMHB supplemented with sodium bicarbonate 25 mM
[3] = E. coli, CAMHB supplemented with sodium bicarbonate 25 mM
[4] = S. aureus, CAMHB supplemented with sodium bicarbonate 25 mM
[5] = A. baumannii, CAMHB supplemented with sodium bicarbonate 25 mM
[6] = E. faecalis, CAMHB supplemented with sodium bicarbonate 25 mM

Structure (SMILES)	MIC (P. aeruginosa (Pa)) [µg/mL]	IC50 [1] [nM]	MIC (A. baumannii (Ab)) [µg/mL]	MIC (E. faecalis (Ef)) [µg/mL]	MIC (E. coli (Ec)) [µg/mL]	MIC (S. aureus (Sa)) [µg/mL]	IC50 (E. coli S30 extract) [nM]	Pa + bicarb 25 (MIC) (P. aeruginosa (Pa); [2])	E. coli + bicarb 25 (MIC) (E. coli (Ec); [3])	Sa + bicarb 25 (MIC) (S. aureus (Sa); [4])	IC50 (E. coli S30 extract; hydrochloride salt) [nM]	MIC (P. aeruginosa (Pa); [2]) [µg/mL]	Ab + bicarb 25 (MIC) (A. baumannii (Ab); [5])	MIC (E. faecalis (Ef); [6]) [µg/mL]	MIC (E. coli (Ec); [3]) [µg/mL]	MIC (S. aureus (Sa); [4]) [µg/mL]	Ef + bicarb 25 (MIC) (E. faecalis (Ef); E. faecalis, CAMHB supplemented with sodium bicarbonate 25 mM, hydrochloride salt)	MIC (A. baumannii (Ab); [5]) [µg/mL]
CC(C)(N)C(=O)N1CCN(C(=O)Nc2ccn(C3=CCC(CN4CCCC(N)CC4)CC3)c(=O)n2)CC1 (centres unmarked) [Compound 4, 4-(2-Amino-2-methylpropanoyl)-N-(1-(4-((4-aminoazepan-1-yl)methyl)cyclohex-1-en-1-yl)-2-oxo-1,2-dihydropyrimidin-4-yl)piperazine-1-carboxamide hydrochloride salt]	> 32	≥ 1000	> 32	< 8	< 8	< 8	< 500	–	–	–	–	–	–	–	–	–	–	–
CC(C)(N)C(=O)N1CCN(C(=O)Nc2ccn(C3CCC(CN4C[C@@H]5[C@@H](N)[C@@H]5C4)CC3)c(=O)n2)CC1 (stereo partly drawn) [Compound 5, 4-(2-Amino-2-methylpropanoyl)-N-(1-(4-((exo-6-amino-3-azabicyclo[3.1.0]hexan-3-yl)methyl)cyclohexyl)-2-oxo-1,2-dihydropyrimidin-4-yl)piperazine-1-carboxamide hydrochloride salt]	–	≥ 1000	8 to 32	< 8	–	–	–	+ (An MIC value (μg/mL) that is 32 μg/mL or greater)	+++ (An MIC value (μg/mL) that is less than 8 μg/mL)	+++ (An MIC value (μg/mL) that is less than 8 μg/mL)	< 500	–	–	–	–	–	–	–
CC(C)(N)C(=O)N1CCN(C(=O)Nc2ccn(C3CCC(CN4C[C@@H]5[C@@H](N)[C@@H]5C4)CC3)c(=O)n2)CC1 (stereo partly drawn) [Compound 6, 4-(2-Amino-2-methylpropanoyl)-N-(1-(cis-4-((exo-6-amino-3-azabicyclo[3.1.0]hexan-3-yl)methyl)cyclohexyl)-2-oxo-1,2-dihydropyrimidin-4-yl)piperazine-1-carboxamide hydrochloride salt]	–	≥ 1000	–	–	–	–	–	–	–	–	≥ 1000	> 32	+ (An MIC value (μg/mL) that is 32 μg/mL or greater)	8 to 32	< 8	< 8	–	–
CC(C)(N)C(=O)N1CCN(C(=O)Nc2ccn(C3CCC(CN4C[C@@H]5[C@@H](N)[C@@H]5C4)CC3)c(=O)n2)CC1 (stereo partly drawn) [Compound 7, 4-(2-Amino-2-methylpropanoyl)-N-(1-(trans-4-((exo-6-amino-3-azabicyclo[3.1.0]hexan-3-yl)methyl)cyclohexyl)-2-oxo-1,2-dihydropyrimidin-4-yl)piperazine-1-carboxamide hydrochloride salt]	–	≥ 1000	–	–	–	–	–	+ (An MIC value (μg/mL) that is 32 μg/mL or greater)	+++ (An MIC value (μg/mL) that is less than 8 μg/mL)	+++ (An MIC value (μg/mL) that is less than 8 μg/mL)	< 500	–	++ (An MIC value (μg/mL) that is 8 μg/mL or greater and less than 32 μg/mL)	–	–	–	+++ (An MIC value (μg/mL) that is less than 8 μg/mL)	–
CC(C)(N)C(=O)N1CCN(C(=O)Nc2ccn(C3CCC(CN4C[C@@H]5[C@@H](CN)[C@@H]5C4)CC3)c(=O)n2)CC1 (stereo partly drawn) [Compound 8, 4-(2-Amino-2-methylpropanoyl)-N-(1-(4-((exo-6-(aminomethyl)-3-azabicyclo[3.1.0]hexan-3-yl)methyl)cyclohexyl)-2-oxo-1,2-dihydropyrimidin-4-yl)piperazine-1-carboxamide hydrochloride salt]	–	≥ 1000	–	–	–	–	< 500	–	–	–	–	8 to 32	–	< 8	< 8	< 8	–	> 32
CC(C)(N)C(=O)N1CCN(C(=O)Nc2ccn(C3CCC(CN4CCCC(N)CC4)CC3)c(=O)n2)CC1 (centres unmarked) [Compound 9, 4-(2-Amino-2-methylpropanoyl)-N-(1-(4-((4-aminoazepan-1-yl)methyl)cyclohexyl)-2-oxo-1,2-dihydropyrimidin-4-yl)piperazine-1-carboxamide hydrochloride salt]	> 32	≥ 1000	8 to 32	< 8	< 8	< 8	< 500	–	–	–	–	–	–	–	–	–	–	–
CC(C)(N)C(=O)N1CCN(C(=O)Nc2ccn(C3=CCC(CN4C[C@@H]5[C@@H](N)[C@@H]5C4)CC3)c(=O)n2)CC1 (stereo partly drawn) [Compound 12, 4-(2-Amino-2-methylpropanoyl)-N-(1-(4-(((1R,5S,6s)-6-amino-3-azabicyclo[3.1.0]hexan-3-yl)methyl)cyclohex-1-en-1-yl)-2-oxo-1,2-dihydropyrimidin-4-yl)piperazine-1-carboxamide hydrochloride salt]	–	≥ 1000	–	–	–	–	< 500	–	–	–	–	> 32	–	< 8	< 8	< 8	–	8 to 32
CC(C)(N)C(=O)N1CCN(C(=O)Nc2ccn(C3CCC(CN[C@H]4CC[C@H](N)C4)CC3)c(=O)n2)CC1 (stereo partly drawn) [Compound 13, 4-(2-Amino-2-methylpropanoyl)-N-(1-(4-((((1S,3S)-3-aminocyclopentyl)amino)methyl)cyclohexyl)-2-oxo-1,2-dihydropyrimidin-4-yl)piperazine-1-carboxamide hydrochloride salt]	> 32	≥ 1000	> 32	8 to 32	< 8	< 8	< 500	–	–	–	–	–	–	–	–	–	–	–
CC(C)(N)C(=O)N1CCN(C(=O)Nc2ccn(C3CCC(CN4CC(CN)C4)CC3)c(=O)n2)CC1 (centres unmarked) [Compound 14, 4-(2-Amino-2-methylpropanoyl)-N-(1-(4-((3-(aminomethyl)azetidin-1-yl)methyl)cyclohexyl)-2-oxo-1,2-dihydropyrimidin-4-yl)piperazine-1-carboxamide hydrochloride salt]	> 32	≥ 1000	> 32	8 to 32	< 8	< 8	< 500	–	–	–	–	–	–	–	–	–	–	–
CC(C)(N)C(=O)N1CCN(C(=O)Nc2ccn(C3CCC(CN4CCC5(CC4)CC(N)C5)CC3)c(=O)n2)CC1 (centres unmarked) [Compound 16, 4-(2-Amino-2-methylpropanoyl)-N-(1-(4-((2-amino-7-azaspiro[3.5]nonan-7-yl)methyl)cyclohexyl)-2-oxo-1,2-dihydropyrimidin-4-yl)piperazine-1-carboxamide hydrochloride salt]	8 to 32	≥ 1000	< 8	< 8	< 8	< 8	< 500	–	–	–	–	–	–	–	–	–	–	–
CC(C)(N)C(=O)N1CCN(C(=O)Nc2ccn([C@H]3CC[C@H](CN[C@H]4CC[C@@H](N)CC4)CC3)c(=O)n2)CC1 [Compound 17, 4-(2-Amino-2-methylpropanoyl)-N-(1-(trans-4-(((cis-4-aminocyclohexyl)amino)methyl)cyclohexyl)-2-oxo-1,2-dihydropyrimidin-4-yl)piperazine-1-carboxamide hydrochloride salt]	> 32	≥ 1000	> 32	< 8	< 8	< 8	< 500	–	–	–	–	–	–	–	–	–	–	–
